# Data as given in patent US20140088034A1, “NITRIC OXIDE/cGMP PATHWAY INHIBITION OF VLA-4 RELATED CELL ADHESION” (STC.UNM, priority 2011, published 2014).
# Where two headings read alike, the source gives them in different places.
# How the values were obtained:
# VLA-4 [1] = target: T1, VLA-4 (Homo sapiens, UniProt P05556+P13612); experiment: Kinetic dissociation rate (koff) analysis of LDV-FITC probe on U937 cells with non-desensitizing FPR mutant; format: cell-based; conditions: U937 FPR ΔST, LDV-FITC 25 nM, LDV block 2 μM
# T1 sequence (P13612 34-1032): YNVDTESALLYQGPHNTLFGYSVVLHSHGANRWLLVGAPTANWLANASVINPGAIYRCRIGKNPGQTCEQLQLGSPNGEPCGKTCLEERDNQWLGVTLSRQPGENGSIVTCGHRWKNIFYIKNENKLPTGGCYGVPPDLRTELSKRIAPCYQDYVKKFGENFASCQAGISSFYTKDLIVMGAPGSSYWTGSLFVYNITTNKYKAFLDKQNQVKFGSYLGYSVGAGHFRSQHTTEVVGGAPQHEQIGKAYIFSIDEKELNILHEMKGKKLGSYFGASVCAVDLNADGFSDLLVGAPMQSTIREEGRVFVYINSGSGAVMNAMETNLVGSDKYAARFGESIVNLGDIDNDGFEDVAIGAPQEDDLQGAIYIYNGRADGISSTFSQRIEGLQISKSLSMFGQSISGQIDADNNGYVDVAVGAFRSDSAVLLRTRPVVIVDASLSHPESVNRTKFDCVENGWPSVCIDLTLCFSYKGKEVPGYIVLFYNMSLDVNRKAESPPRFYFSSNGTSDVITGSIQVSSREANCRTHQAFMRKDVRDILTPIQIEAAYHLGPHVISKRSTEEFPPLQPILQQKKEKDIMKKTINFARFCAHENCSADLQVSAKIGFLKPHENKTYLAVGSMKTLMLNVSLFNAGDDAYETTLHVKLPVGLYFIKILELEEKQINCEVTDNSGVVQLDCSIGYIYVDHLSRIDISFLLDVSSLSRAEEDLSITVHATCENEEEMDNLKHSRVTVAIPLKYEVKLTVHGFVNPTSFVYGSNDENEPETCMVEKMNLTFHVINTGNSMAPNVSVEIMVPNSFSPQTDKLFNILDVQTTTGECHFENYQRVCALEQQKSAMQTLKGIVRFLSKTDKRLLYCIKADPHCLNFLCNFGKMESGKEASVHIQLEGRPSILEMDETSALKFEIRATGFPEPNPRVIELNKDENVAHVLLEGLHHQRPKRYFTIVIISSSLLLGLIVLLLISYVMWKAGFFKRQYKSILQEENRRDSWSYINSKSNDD
# T1 sequence (P05556 21-798): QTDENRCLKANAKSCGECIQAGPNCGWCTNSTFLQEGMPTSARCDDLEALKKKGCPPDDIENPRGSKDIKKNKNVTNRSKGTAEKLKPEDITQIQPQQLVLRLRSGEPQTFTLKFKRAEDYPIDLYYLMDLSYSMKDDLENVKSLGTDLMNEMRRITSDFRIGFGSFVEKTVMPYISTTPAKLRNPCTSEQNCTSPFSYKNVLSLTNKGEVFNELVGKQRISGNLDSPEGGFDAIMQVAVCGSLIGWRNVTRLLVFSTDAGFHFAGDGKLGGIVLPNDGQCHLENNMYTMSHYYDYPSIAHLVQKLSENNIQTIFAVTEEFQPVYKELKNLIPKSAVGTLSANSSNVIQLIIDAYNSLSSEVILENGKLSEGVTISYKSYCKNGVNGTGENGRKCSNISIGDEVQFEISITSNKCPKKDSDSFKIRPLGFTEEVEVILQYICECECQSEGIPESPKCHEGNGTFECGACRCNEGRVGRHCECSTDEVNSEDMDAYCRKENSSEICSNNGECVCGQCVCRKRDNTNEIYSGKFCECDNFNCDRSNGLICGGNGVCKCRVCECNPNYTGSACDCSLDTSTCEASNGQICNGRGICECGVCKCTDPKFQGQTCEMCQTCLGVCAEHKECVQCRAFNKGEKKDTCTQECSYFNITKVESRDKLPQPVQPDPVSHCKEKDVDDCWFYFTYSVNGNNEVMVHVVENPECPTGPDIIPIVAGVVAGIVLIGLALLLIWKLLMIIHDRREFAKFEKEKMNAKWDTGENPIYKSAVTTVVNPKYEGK
# Description: The experiment involved sequential addition of BAY 41-2272 (100 μM, guanylyl cyclase activator) or vehicle (control) at the 0 time point, and the fluorescent LDV-FITC probe (4 nM), and CXCL8/IL-8 (20 nM) (arrows). Excess unlabelled competitor LDV (1 μM) added at the end of the experiment to determine the non-specific binding of the probe. This experiment is analogous to the one shown in panel B. One representative experiment of two experiments is shown. Curves are means of two independent determinations calculated on a point-by-point basis (n=2). […] D, Kinetic analysis of binding and dissociation of LDV-FITC probe on U937 cells stably transfected with the non-desensitizing mutant of FPR. Cells were sequentially treated with the LDV-FITC probe (25 nM, near saturation), the Gαi-coupled receptor ligand (fMLFF, 100 nM), BAY 41-2272 (guanylyl cyclase activator, 50 μM) (arrows). At time points indicated by arrows, cells were treated with excess unlabeled LDV containing small molecule (2 μM), and the dissociation of the fluorescent molecule was followed. Dissociation rate constants (koff) were obtained by fitting dissociation curves to a single exponential decay equation (as described in the text). Experiments shown in the different panels were performed using different instruments, and therefore MCF values are not identical. E, Dissociation rate values, obtained in experiments analogous to panel B, summarized as a bar graph showing mean and SEM (n=4). Colors of the dissociation curves in panel D and bars on panel E are matching. The difference between koffs for “resting” and “fMLFF activated”, and between “fMLFF activated” and “fMLFF activated and treated with BAY 41-2272” is statistically significant (P=0.0006<0.05) as calculated by one-way analysis of variance (ANOVA) using GraphPad Prism software. […]
# Next, the regions of the ligand-binding curves corresponding to the dissociation of the LDV-FITC probe were fitted to a single exponential decay equation. […] The affinity state induced by guanylyl cyclase activator was quantitatively similar to the resting state before activation. […]
# VLA-4 [2] = target: T1, VLA-4; experiment: LDV-FITC equilibrium binding to VLA-4 (Kd and calculated receptor occupancy)
# Source text: Previously, we described and characterized in detail a model ligand an LDV-FITC containing small molecule ([14, 42-44], and references therein) for the detection of VLA-4 conformational regulation. This VLA-4 specific fluorescent probe was based on a highly specific α4β1-integrin inhibitor BIO1211, which contains the Leu-Asp-Val (LDV) ligand binding motif from the alternatively spliced connecting segment-1 (CS-1) peptide of cellular fibronectin [17, 45]. We established that integrin affinity changes, detected using this probe, vary in parallel with the natural VLA-4 ligand, human VCAM-1 [46]. For real-time detection of rapid integrin conformational changes, cells were treated with LDV-FITC (FIG. 2, first arrow), which was added after establishing a baseline for unstained cells, indicated on FIG. 2A as “autofluorescence”. Next, data were acquired for 2-3 minutes, and cells were activated with fMLFF (high affinity FPR ligand), CXCL12/SDF-1 (CXCR4 ligand), or CXCL8/IL-8 (CXCR2 ligand), for FPR, CXCR4, CXCR2 transfected cells, respectively (FIGS. 2A, B, and C). […] The change in occupancy was detected as a rapid increase in the mean channel fluorescence (MCF). This signal increase was sustained for the case of a non-desensitizing mutant of FRP (FIG. 2A), and reversible for the wild-type receptors (CXCR4, and CXCR2, FIG. 2B,C). Next, cells were treated with the nitric oxide donor, or vehicle (control). Acquisition was re-established, and data were acquired continuously for up to 720-840 s. […] In the absence of receptor desensitization, the effect of nitric oxide was more evident in cells transfected with a non-desensitizing mutant of FPR (vehicle, FIG. 2A). However, the effect of the nitric oxide donor was statistically significant for both wild-type GPCRs. […] To emphasize statistically the difference between control and experimental samples, standard errors of mean are indicated using error bars for every experimental point in FIG. 2B, 2C, 2D, 2E.
# Kinetic analysis of the binding and dissociation of the LDV-FITC probe was described previously. […]
# VLA-4 [3] = target: T1, VLA-4; conditions: cited from earlier work
# [4] = 4 nM probe, calculated based on the one site binding equation
substance,measurement,setting,value
4-((N′-2-methylphenyl)ureido)-phenylacetyl-L-leucyl-L-aspartyl-L-valyl-L-prolyl-L-alanyl-L-alanyl-L-lysine-FITC [LDV-FITC],"dissociation rate constant koff of LDV-FITC, resting cells",VLA-4 [1]; at rest,~0.04 ± 0.001 s⁻¹
same,dissociation rate constant koff of LDV-FITC after cell activation by fMLFF,VLA-4 [1]; fMLFF 100 nM,~0.018 ± 0.0001 s⁻¹
same,"receptor occupancy, high affinity state",VLA-4 [2]; [4],70-80%
same,"receptor occupancy, low affinity state",VLA-4 [2]; [4],~25%
same,sites occupied before activation,"VLA-4 [2]; 25 nM probe, low affinity state",~70%
same,Kd,"VLA-4 [3]; physiologically activated VLA-4, high affinity state, read-out: Kd for physiologically activated VLA-4 (high affinity state)",1 to 2 nM
same,Kd,"VLA-4 [3]; resting VLA-4, low affinity state, read-out: Kd for binding to resting VLA-4 (low affinity state)",~12 nM
